Results from patent US20100227880A1, “CHEMICAL COMPOUNDS” (priority 2006, published 2010).

Test system: HIV-1 Ba-L or HIV-1 IIIB infection of the HOS cell line (expressing hCXCR4/hCCR5/hCD4/pHIV-LTR-luciferase)
Assay: HOS HIV-1 Infectivity Assay
Assay type: cell-based
Details: Human immunodeficiency virus 1, HOS cells, luciferase readout, strain not given, read-out: Activity Level
Description: Compounds were profiled against two HIV-1 viruses, the M-tropic (CCR5 utilizing) Ba-L strain and the T-tropic (CXCR4 utilizing) IIIB strain. Ba-L was propagated in either peripheral blood lymphocytes or SupT1/CCR5+/CXCR4+ cells. IIIB was propagated in peripheral blood lymphocytes. Compounds were tested for their ability to block infection of the HOS cell line (expressing hCXCR4/hCCR5/hCD4/pHIV-LTR-luciferase) by either HIV-1 Ba-L or HIV-1 IIIB. Compound cytotoxicity was also examined in the absence of virus addition.
HOS cells (expressing hCXCR4/hCCR5/hCD4/pHIV-LTR-luciferase) were harvested and diluted in Dulbeccos modified Eagles media supplemented with 2% FCS to a concentration of 120,000 cells/ml. The cells were plated into 96-well plates (50 μl per well) and the plates were placed in a tissue culture incubator (370° C.; 5% CO2/95% air) for a period of 24 h.
Subsequently, 50 μl of the desired drug solution (2 times the final concentration) was added to each well and the plates were returned to the tissue culture incubator ([…]; 5% CO2/95% air) for 1 h. Following this incubation, 60 μl of diluted virus (4 times the final concentration) was added to 60 μl of 2× the final desired concentration of the compound and 100 μl this compound/virus mix was added to each well (approximately 2 million RLU per well of virus). The plates were returned to the tissue culture incubator ([…]; 5% CO2/95% air) and were incubated for a further 96 h.
Following this incubation the endpoint for the virally infected cultures was quantified following addition of Steady-Glo Luciferase assay system reagent (Promega, Madison, Wis.). Cell viability or non-infected cultures was measured using a CellTiter-Glo luminescent cell viability assay system (Promega, Madison, Wis.). All luminescent readouts are performed on a Topcount luminescence detector (Packard, Meridien, Conn.).

| SMILES | IC50 |
| --- | --- |
| CN(CC#N)Cc1c(CN(C)[C@H]2CCCc3cccnc32)nc2ccccn12 [Example 25, (Methyl{[2-({methyl[(8S)-5,6,7,8-tetrahydro-8-quinolinyl]amino}methyl)imidazo[1,2-a]pyridin-3-yl]methyl}amino)acetonitrile] | < 100 nM |
| CCN(CC)Cc1c(CN(C)[C@H]2CCCc3cccnc32)nc2ccccn12 [Example 20, (8S)-N-({3-[(Diethylamino)methyl]imidazo[1,2-a]pyridin-2-yl}methyl)-N-methyl-5,6,7,8-tetrahydro-8-quinolinamine] | 100 to 500 nM |
| CN(C)CCNCc1c(CN(C)C2CCCc3cccnc32)nc2ccccn12 (racemic) [Example 30, N,N-dimethyl-N′-[(2-{[methyl(5,6,7,8-tetrahydro-8-quinolinyl)amino]methyl}imidazo[1,2-a]pyridin-3-yl)methyl]-1,2-ethanediamine] | 100 to 500 nM |
| CN(Cc1nc2ccccn2c1CN1CCCC1)[C@H]1CCCc2cccnc21 [Example 9, (8S)-N-Methyl-N-{[3-(1-pyrrolidinylmethyl)imidazo[1,2-a]pyridin-2-yl]methyl}-5,6,7,8-tetrahydro-8-quinolinamine] | < 100 nM |
| CN(Cc1nc2ccccn2c1CN1CCCCC1)[C@H]1CCCc2cccnc21 [Example 12, (8S)-N-Methyl-N-{[3-(1-piperidinylmethyl)imidazo[1,2-a]pyridin-2-yl]methyl}-5,6,7,8-tetrahydro-8-quinolinamine] | < 100 nM |
| CN1CCN(c2ccc(-c3c(CN(C)[C@H]4CCCc5cccnc54)nc4ccccn34)cn2)CC1 [Example 14, (8S)-N-Methyl-N-({3-[6-(4-methyl-1-piperazinyl)-3-pyridinyl]imidazo[1,2-a]pyridin-2-yl}methyl)-5,6,7,8-tetrahydro-8-quinolinamine] | < 100 nM |
| CN(Cc1nc2ccccn2c1CCCN)[C@H]1CCCc2cccnc21 [Example 2, (8S)-N-{[3-(3-Aminopropyl)imidazo[1,2-a]pyridin-2-yl]methyl}-N-methyl-5,6,7,8-tetrahydro-8-quinolinamine] | < 100 nM |
| CN(C)C1CCN(Cc2c(CN(C)[C@H]3CCCc4cccnc43)nc3ccccn23)C1 (stereo partly drawn) [Example 13, (8S)-N-[(3-{[3-Dimethylamino-1-pyrrolidinyl]methyl}imidazo[1,2-a]pyridin-2-yl)methyl]-N-methyl-5,6,7,8-tetrahydro-8-quinolinamine] | < 100 nM |
| CN1CCN(C(=O)c2c(CN(C)C3CCCc4cccnc43)nc3ccccn23)CC1 (stereo not drawn) [Example 37, N-methyl-N-({3-[(4-methyl-1-piperazinyl)carbonyl]imidazo[1,2-a]pyridin-2-yl}methyl)-5,6,7,8-tetrahydro-8-quinolinamine] | 500 to 10000 nM |
